Measured values reported in PubChem BioAssay AID1963871 (Molecular Pharmacology Branch, DTP, NCI, 2024).

Test system: KRAS-mutant PDC multicell tumor spheroid viability
Test: Anticancer human tumor 521955-158-R2-J5-PDC patient-derived pancreatic carcinoma cell line growth inhibition [KRAS2]
Conditions: for IC50: curve of first compound; for viability, T/C: stronger effect = lower value
Procedure, shortened: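 Combination screen of spheroid viability in tumor-cell co-cultures with endothelial (HUVEC) and mesenchymal stem cell stroma. Each agent was tested in half-log dilutions, topping at clinical Cmax or at 10 microM without a known Cmax.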

[1] = second compound 0.1 µM, first compound 0.0316 µM
[2] = second compound 0.1 µM, first compound 0.1 µM
[3] = second compound 0.1 µM, first compound 0.316 µM
[4] = second compound 0.1 µM, first compound 1 µM
[5] = second compound 0.1 µM, first compound 3.16 µM
[6] = second compound 0.1 µM, first compound 10 µM
[7] = second compound 0.316 µM, first compound 0.0316 µM
[8] = second compound 0.316 µM, first compound 0.1 µM
[9] = second compound 0.316 µM, first compound 0.316 µM
[10] = second compound 0.316 µM, first compound 1 µM
[11] = second compound 0.316 µM, first compound 3.16 µM
[12] = second compound 0.316 µM, first compound 10 µM
[13] = second compound 1 µM, first compound 0.0316 µM
[14] = second compound 1 µM, first compound 0.1 µM
[15] = second compound 1 µM, first compound 0.316 µM
[16] = second compound 1 µM, first compound 1 µM
[17] = second compound 1 µM, first compound 3.16 µM
[18] = second compound 1 µM, first compound 10 µM
[19] = second compound 3.16 µM, first compound 0.0316 µM
[20] = second compound 3.16 µM, first compound 0.1 µM
[21] = second compound 3.16 µM, first compound 0.316 µM
[22] = second compound 3.16 µM, first compound 1 µM
[23] = second compound 3.16 µM, first compound 3.16 µM
[24] = second compound 3.16 µM, first compound 10 µM
[25] = second compound 10 µM, first compound 0.0316 µM
[26] = second compound 10 µM, first compound 0.1 µM
[27] = second compound 10 µM, first compound 0.316 µM
[28] = second compound 10 µM, first compound 1 µM
[29] = second compound 10 µM, first compound 3.16 µM
[30] = second compound 10 µM, first compound 10 µM
[31] = second compound 0.1 µM, first compound 0.00316 µM
[32] = second compound 0.1 µM, first compound 0.01 µM
[33] = second compound 0.316 µM, first compound 0.00316 µM
[34] = second compound 0.316 µM, first compound 0.01 µM
[35] = second compound 1 µM, first compound 0.00316 µM
[36] = second compound 1 µM, first compound 0.01 µM
[37] = second compound 3.16 µM, first compound 0.00316 µM
[38] = second compound 3.16 µM, first compound 0.01 µM
[39] = second compound 10 µM, first compound 0.00316 µM
[40] = second compound 10 µM, first compound 0.01 µM
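Also: viability read after seven days of drug exposure.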

Structure (SMILES)	IC50 (second compound 0.1 µM) [nM]	IC50 (second compound 0.316 µM) [nM]	IC50 (second compound 1 µM) [nM]	IC50 (second compound 3.16 µM) [nM]	IC50 (second compound 10 µM) [nM]	viability, T/C [1] [%]	viability, T/C [2] [%]	viability, T/C [3] [%]	viability, T/C [4] [%]	viability, T/C [7] [%]	viability, T/C [8] [%]	viability, T/C [9] [%]	viability, T/C [10] [%]	viability, T/C [13] [%]	viability, T/C [14] [%]	viability, T/C [15] [%]	viability, T/C [19] [%]	viability, T/C [20] [%]	viability, T/C [25] [%]	viability, T/C [26] [%]	also measured
CC(C)NCC(C(=O)N1CCN(c2ncnc3c2C(C)CC3O)CC1)c1ccc(Cl)cc1 (stereo not given) + CC1OCC2(CCN(c3cnc(Sc4ccnc(N)c4Cl)c(N)n3)CC2)C1N	> 10000	> 10000	1080	287	483	67.8	82.7	67.7	61.8	65.3	66.8	55.4	60.3	62	60.9	46.5	56.5	57.8	54.1	66.9	viability, T/C [5]: 74.3%; viability, T/C [6]: 53.7%; viability, T/C [11]: 61.2%; viability, T/C [12]: 48.7%; viability, T/C [16]: 51.3%; viability, T/C [17]: 53.3%; viability, T/C [18]: 39.5%; viability, T/C [21]: 43.1%; viability, T/C [22]: 41.5%; viability, T/C [23]: 48.4%; viability, T/C [24]: 27.7%; viability, T/C [27]: 51.2%; viability, T/C [28]: 38%; viability, T/C [29]: 41.5%; viability, T/C [30]: 20.7%
CCN1CCN(Cc2ccc(Nc3ncc(F)c(-c4cc(F)c5nc(C)n(C(C)C)c5c4)n3)nc2)CC1 + CC1OCC2(CCN(c3cnc(Sc4ccnc(N)c4Cl)c(N)n3)CC2)C1N	> 1000	> 1000	> 1000	> 1000	> 1000	59	61.5	73.7	66	55.2	57.2	75.5	61.4	58.2	60	62.2	60.9	60.8	63.5	61.7	viability, T/C [31]: 72.4%; viability, T/C [32]: 87%; viability, T/C [33]: 66.5%; viability, T/C [34]: 70.6%; viability, T/C [35]: 70.6%; viability, T/C [36]: 59.5%; viability, T/C [16]: 68.8%; viability, T/C [37]: 66.8%; viability, T/C [38]: 67.9%; viability, T/C [21]: 63.8%; viability, T/C [22]: 60.1%; viability, T/C [39]: 62.6%; viability, T/C [40]: 71.8%; viability, T/C [27]: 57.4%; viability, T/C [28]: 50.2%
CCNC(=O)CC1N=C(c2ccc(Cl)cc2)c2cc(OC)ccc2-n2c(C)nnc21 (stereo not given) + CC1OCC2(CCN(c3cnc(Sc4ccnc(N)c4Cl)c(N)n3)CC2)C1N	289	172	127	132	92.9	71.5	71.2	47.3	33.8	76.3	61.1	36.9	29.7	66	51.5	40.4	65.8	52.2	60.7	47.8	viability, T/C [5]: 26.5%; viability, T/C [6]: 28.7%; viability, T/C [11]: 23.6%; viability, T/C [12]: 22.6%; viability, T/C [16]: 25.7%; viability, T/C [17]: 19.6%; viability, T/C [18]: 20.8%; viability, T/C [21]: 40%; viability, T/C [22]: 23.5%; viability, T/C [23]: 20%; viability, T/C [24]: 20.4%; viability, T/C [27]: 35.7%; viability, T/C [28]: 20.6%; viability, T/C [29]: 15.9%; viability, T/C [30]: 16.9%
Cn1ncnc1[C@H]1c2n[nH]c(=O)c3cc(F)cc(c23)N[C@@H]1c1ccc(F)cc1 + CC1OCC2(CCN(c3cnc(Sc4ccnc(N)c4Cl)c(N)n3)CC2)C1N	> 100	> 100	3.6	< 0.316	< 0.316	63.7	53.3	–	–	46.6	55.1	–	–	45.4	51.4	–	41.9	41.8	37.9	40	viability, T/C (second compound 0.1 µM, first compound 0.000316 µM): 72.5%; viability, T/C (second compound 0.1 µM, first compound 0.001 µM): 75%; viability, T/C [31]: 63.8%; viability, T/C [32]: 63.6%; viability, T/C (second compound 0.316 µM, first compound 0.000316 µM): 58%; viability, T/C (second compound 0.316 µM, first compound 0.001 µM): 58.2%; viability, T/C [33]: 61.5%; viability, T/C [34]: 55.6%; viability, T/C (second compound 1 µM, first compound 0.000316 µM): 56.7%; viability, T/C (second compound 1 µM, first compound 0.001 µM): 53.4%; viability, T/C [35]: 52.7%; viability, T/C [36]: 45%; viability, T/C (second compound 3.16 µM, first compound 0.000316 µM): 46.4%; viability, T/C (second compound 3.16 µM, first compound 0.001 µM): 44.4%; viability, T/C [37]: 46.5%; viability, T/C [38]: 44.5%; viability, T/C (second compound 10 µM, first compound 0.000316 µM): 43.6%; viability, T/C (second compound 10 µM, first compound 0.001 µM): 47.5%; viability, T/C [39]: 46.5%; viability, T/C [40]: 38.5%
